Laboratory results taken from patent US20180282323A1, “Mesoionic imidazole derivatives as insecticides” (BAYER CROPSCIENCE AKTIENGESELLSCHAFT, priority 2015, published 2018).
Where two headings read alike, the source gives them in different places.

Key:
Tetranychus urticae = Tetranychus urticae spray test, OP-resistant; type: in vivo; settings: application rate 500 g/ha, bean leaf discs, all stages, after 6 days
Protocol: Tetranychus urticae—Spray Test, OP-Resistant Solvent: 78.0 parts by weight of acetone • • 1.5 parts by weight of dimethylformamide Emulsifier: alkylaryl polyglycol ether
(§1) To produce a suitable active ingredient formulation, 1 part by weight of active ingredient is dissolved with the stated parts by weight of solvent and made up with water containing an emulsifier concentration of 1000 ppm until the desired concentration is attained. To produce further test concentrations, the formulation is diluted with emulsifier-containing water.
Discs of bean leaves (Phaseolus vulgaris) infested with all stages of the greenhouse red spider mite (Tetranychus urticae) are sprayed with an active ingredient formulation of the desired concentration.
After 6 days, the efficacy in % is determined. 100% means that all the spider mites have been killed; 0% means that no spider mites have been killed.

[1] = log P by HPLC on reversed-phase column (EEC directive 79/831 Annex V.A8); type: physicochemical
Summary of the method: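 Determined per EEC directive 79/831 Annex V.A8 by HPLC on a reversed-phase C18 column at 43° C.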

Myzus persicae [2] = assay: Myzus persicae oral test; type: in vivo; settings: application rate 20 ppm, oral uptake through parafilm, after 5 days; for pest or weed control at 20 ppm: Myzus persicae, 120 h, read-out: efficacy
Summary of the method: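 Compound dissolved in acetone, diluted with water, then mixed into IPL41 insect medium with sugar in microtitre plates under parafilm. Mixed-population green peach aphids fed through the membrane; % mortality scored after 5 days (100% = all killed).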

Boophilus microplus = Boophilus microplus injection test; type: in vivo; settings: application rate 20 μg/animal, assessed after 7 days by laying of fertile eggs
Protocol: Boophilus microplus—Injection Test Solvent: dimethyl sulphoxide
To produce a suitable active ingredient formulation, 10 mg of active ingredient are mixed with 0.5 ml of solvent and the concentrate is diluted with solvent to the desired concentration.
1 μl of the active ingredient solution is injected into the abdomen of 5 engorged adult female cattle ticks (Boophilus microplus). The animals are transferred into dishes and kept in a climate-controlled room.
Efficacy is assessed after 7 days by laying of fertile eggs. Eggs which are not visibly fertile are stored in a climate-controlled cabinet until the larvae hatch after about 42 days. An efficacy of 100% means that none of the ticks has laid any fertile eggs; 0% means that all the eggs are fertile.

Lucilia cuprina = Lucilia cuprina test; type: in vivo; settings: application rate 100 ppm, L1 larvae, after 2 days
Protocol: Lucilia cuprina Test Solvent: dimethyl sulphoxide
(§2) To produce a suitable active ingredient formulation, 10 mg of active ingredient are mixed with 0.5 ml of dimethyl sulphoxide, and the concentrate is diluted with water to the desired concentration.
About 20 L1 larvae of the Australian sheep blowfly (Lucilia cuprina) are transferred into a test vessel containing minced horsemeat and the active ingredient formulation of the desired concentration.
After 2 days, the kill in % is determined. 100% means that all the larvae have been killed; 0% means that no larvae have been killed.

Musca domestica = Musca domestica test; type: in vivo; settings: application rate 100 ppm, adult houseflies, after 2 days
Protocol: Musca domestica Test Solvent: dimethyl sulphoxide
as §2
Vessels containing a sponge treated with sugar solution and the active ingredient formulation of the desired concentration are populated with 10 adult houseflies (Musca domestica).
After 2 days, the kill in % is determined. 100% means that all of the flies have been killed; 0% means that none of the flies have been killed.

Diabrotica balteata = Diabrotica balteata spray test; type: in vivo; settings: application rate 160 μg/well, wheat grains with beetle larvae, after 7 days
Summary of the method: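 Compound in acetone/DMF with emulsifier water sprayed onto wheat seedlings germinated one day on agar, 5 grains per well. Each well then infested with 10-20 Diabrotica balteata larvae. Efficacy scored after 7 days: 100% = plant growth as uninfected control, 0% = no plants grown.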

Myzus persicae [3] = assay: Myzus persicae spray test (Chinese cabbage leaf discs); type: in vivo; settings: application rate 500 g/ha, after 6 days
Summary of the method: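 Active ingredient was formulated in acetone/DMF and diluted with water containing 1000 ppm emulsifier. Chinese cabbage leaf discs infested with all aphid stages were sprayed, and % kill was scored after 6 days (100% = all aphids dead).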

Myzus persicae [4] = assay: Myzus persicae spray test (bell pepper plants); type: in vivo; settings: application rate 100 ppm, after 6 days
Protocol: Myzus persicae—Spray Test Solvent: 14 parts by weight of dimethylformamide Emulsifier: alkylaryl polyglycol ether
as §1, with “water. If the addition of ammonium salts or/and penetrants is required, these are each added in a concentration of 1000 ppm to the formulation solution.” for “water.”
Bell pepper plants (Capsicum annuum) severely infested with the green peach aphid (Myzus persicae) are treated by spraying with the active ingredient formulation in the desired concentration.
After 6 days, the kill in % is determined. 100% means that all of the aphids have been killed; 0% means that none of the aphids have been killed.

Ctenocephalides felis [5] = assay: Ctenocephalides felis in vitro contact test with adult cat fleas; type: in vivo; settings: application rate 5 μg/cm^2, after 48 h, adult cat fleas dead or moribund
Protocol: Ctenocephalides felis—In Vitro Contact Tests with Adult Cat Fleas
For the coating of the test tubes, 9 mg of active ingredient are first dissolved in 1 ml of acetone p.a. and then diluted to the desired concentration with acetone p.a. 250 μl of the solution are distributed homogeneously on the inner walls and the base of a 25 ml test tube by turning and rocking on an orbital shaker (rocking rotation at 30 rpm for 2 h). With 900 ppm of active ingredient solution and internal surface area 44.7 cm^2, given homogeneous distribution, an area-based dose of 5 μg/cm^2 is achieved.
After the solvent has evaporated off, the tubes are populated with 5-10 adult cat fleas (Ctenocephalides felis), sealed with a perforated plastic lid and incubated in a horizontal position at room temperature and ambient humidity. After 48 h, efficacy is determined. To this end, the test tubes are stood upright and the fleas are knocked to the base of the tube. Fleas which remain motionless at the base or move in an uncoordinated manner are considered to be dead or moribund.
100% efficacy means that all the fleas were dead or moribund. 0% efficacy means that no fleas were harmed.

Ctenocephalides felis [6] = assay: Ctenocephalides felis oral test; type: in vivo; settings: application rate 100 ppm in citrated cattle blood, after 2 days
Protocol: Ctenocephalides felis—Oral Test Solvent: dimethyl sulphoxide
For the purpose of production of a suitable active ingredient formulation, 10 mg of active ingredient are mixed with 0.5 ml of dimethyl sulphoxide. Dilution with citrated cattle blood gives the desired concentration.
About 20 unfed adult cat fleas (Ctenocephalides felis) are placed into a chamber which is closed at the top and bottom with gauze. A metal cylinder whose bottom end is closed with parafilm is placed onto the chamber. The cylinder contains the blood/active ingredient formulation, which can be imbibed by the fleas through the parafilm membrane.
After 2 days, the kill in % is determined. 100% means that all of the fleas have been killed; 0% means that none of the fleas have been killed.

Phaedon cochleariae = Phaedon cochleariae spray test; type: in vivo; settings: application rate 500 g/ha, Chinese cabbage leaf discs, larvae, after 7 days
Protocol: Phaedon cochleariae—Spray Test Solvent: 78.0 parts by weight of acetone • • 1.5 parts by weight of dimethylformamide Emulsifier: alkylaryl polyglycol ether
as §1
Discs of Chinese cabbage leaves (Brassica pekinensis) are sprayed with an active ingredient formulation of the desired concentration and, after drying, populated with larvae of the mustard beetle (Phaedon cochleariae).
After 7 days, the efficacy in % is determined. 100% means that all the beetle larvae have been killed; 0% means that no beetle larvae have been killed.

Meloidogyne incognita = Meloidogyne incognita test; type: in vivo; settings: application rate 20 ppm, formation of galls on lettuce after 14 days
Protocol: Meloidogyne incognita Test Solvent: 125.0 parts by weight of acetone
To produce a suitable preparation of active ingredient, 1 part by weight of active ingredient is mixed with the stated amount of solvent and the concentrate is diluted with water to the desired concentration.
Vessels are filled with sand, active ingredient solution, an egg/larvae suspension of the southern root-knot nematode (Meloidogyne incognita) and lettuce seeds. The lettuce seeds germinate and the plants develop. The galls develop on the roots.
After 14 days, the nematicidal efficacy in % is determined by the formation of galls. 100% means that no galls were found; 0% means that the number of galls on the treated plants corresponds to the untreated control.

[7] = HPLC on reversed-phase column (footnote a)

Structure (SMILES)	efficacy (Tetranychus urticae)	log p [1, 7]	efficacy (Myzus persicae [2])	efficacy (Boophilus microplus)	efficacy (kill in %) (Lucilia cuprina)	efficacy (kill in %) (Musca domestica)	efficacy (Diabrotica balteata)	efficacy (Myzus persicae [3])	efficacy (Ctenocephalides felis [5])	other results
O=C(COc1ccccc1)c1c([O-])n(Cc2cnc(Cl)s2)c2cccc[n+]12 [Example I-1-017]	90%	2.34	100%	–	–	–	–	–	–	–
CSCC(=O)c1c([O-])n(Cc2cnc(Cl)s2)c2cccc[n+]12 [Example I-1-034]	–	1.73	100%	80%	100%	80%	100%	90%	–	–
O=C(CCl)c1c([O-])n(Cc2cnc(Cl)s2)c2cccc[n+]12 [Example I-1-002, 3-(Chloroacetyl)-1-[(2-chloro-1,3-thiazol-5-yl)methyl]-1H-imidazo[1,2-a]pyridin-4-ium-2-olate]	90%	–	–	–	–	–	–	–	–	efficacy (kill in %) (Myzus persicae [4]): 90%; chromatographic logP [1]: 1.69; chromatographic logP ([1]; pH 2.7): 1.69; pest or weed control at 20 ppm (Myzus persicae [2]): 100%
O=C(NCC(F)(F)F)c1c([O-])n(Cc2cnc(Cl)s2)c2cccc[n+]12 [Example I-1-137]	90%	2.08	100%	–	95%	–	100%	–	–	efficacy (kill in %) (Myzus persicae [4]): 95%
COCC(=O)c1c([O-])n(Cc2ccc(Cl)nc2)c2cccc[n+]12 [Example I-1-003]	–	1.18	100%	80%	100%	80%	–	100%	100%	efficacy (kill in %) (Ctenocephalides felis [6]): 95%
COCC(=O)c1c([O-])n(Cc2cnc(Cl)s2)c2cccc[n+]12 [Example I-1-008, 1-[(2-Chloro-1,3-thiazol-5-yl)methyl]-3-(methoxyacetyl)-1H-imidazo[1,2-a]pyridin-4-ium-2-olate]	–	–	–	100%	90%	100%	100%	100%	–	chromatographic logP [1]: 1.23; chromatographic logP ([1]; pH 2.7): 1.23; pest or weed control at 20 ppm (Myzus persicae [2]): 100%
O=C(Cn1cccn1)c1c([O-])n(Cc2cnc(Cl)s2)c2cccc[n+]12 [Example I-1-009, 1-[(2-Chloro-1,3-thiazol-5-yl)methyl]-3-(1H-pyrazol-1-ylacetyl)-1H-imidazo[1,2-a]pyridin-4-ium-2-olate]	90%	–	–	100%	100%	–	–	90%	–	chromatographic logP ([1]; reversed-phase C18 HPLC column, pH 2.7, HPLC on reversed-phase column (footnote a), read-out: log p): 1.47; chromatographic logP ([1]; reversed-phase C18 HPLC column, HPLC-MS, reversed-phase C18, 43° C., calibration with alkan-2-ones, read-out: log P): 1.47; pest or weed control at 20 ppm (Myzus persicae [2]): 100%
CCCOCC(=O)c1c([O-])n(Cc2cnc(Cl)s2)c2cccc[n+]12 [Example I-1-033]	–	1.92	100%	80%	90%	100%	100%	–	90%	efficacy (kill in %) (Myzus persicae [4]): 100%
CCOCC(=O)c1c([O-])n(Cc2cnc(Cl)s2)c2cccc[n+]12 [Example I-1-032]	–	1.57	100%	–	90%	100%	100%	–	100%	efficacy (kill in %) (Myzus persicae [4]): 100%
O=C(CCl)c1c([O-])n(Cc2cncnc2)c2cccc[n+]12 [Example I-1-019]	90%	0.77	–	–	–	–	–	–	–	–
COCC(=O)c1c([O-])n(Cc2cnc(Cl)s2)c2c(C)ccc[n+]12 [Example I-1-082]	–	1.46	100%	–	–	–	100%	100%	100%	efficacy (Phaedon cochleariae): 100%
O=C(Cn1cncn1)c1c([O-])n(Cc2cnc(Cl)s2)c2cccc[n+]12 [Example I-1-014]	90%	1.1	100%	–	–	–	–	–	–	–
O=C(NC1CC1)c1c([O-])n(Cc2cnc(Cl)s2)c2cccc[n+]12 [Example I-1-111, 1-[(2-Chloro-1,3-thiazol-5-yl)methyl]-3-(cyclopropylcarbamoyl)-1H-imidazo[1,2-a]pyridin-4-ium-2-olate]	–	–	–	–	100%	100%	100%	100%	100%	chromatographic logP [1]: 1.63; chromatographic logP ([1]; pH 2.7): 1.63; pest or weed control at 20 ppm (Myzus persicae [2]): 100%
Cc1ccc[n+]2c(C(=O)Nc3c(Cl)cccc3Cl)c([O-])n(Cc3cnc(Cl)s3)c12 [Example I-1-277]	–	–	100%	–	–	–	100%	–	–	efficacy (Phaedon cochleariae): 83%; log p a) ([1]; HPLC on reversed-phase column): 3.11; nematicidal efficacy (Meloidogyne incognita): 90%
